Tests used:
human Nav1.5 = molecular target: T1, human Nav1.5 (Homo sapiens, UniProt Q14524); experiment: Amplification of Nav1.5-derived voltage-dependent sodium current (Nav1.5 current), cell line stably expressing human Nav1.5, automated patch clamp; type: cell-based
T1 construct: expressed in transfected cells; host or cells: CHO-K1 (T-REx System, ThermoFisher Scientific)
Procedure: Test 2: Evaluation of the Amplification in Nav1.5-Derived Voltage-Dependent Sodium Current (Nav1.5 Current) by Using a Cell Line Stably Expressing Human Nav1.5
A CHO-K1 cell line (Chinese hamster ovary) stably expressing human Nav1.5 (Gene Bank Accession No: P000326.2) was obtained by using purchased T-Rex System (ThermoFisher Scientific, USA), and used for the present test. The effect of test compounds on the amplification of Nav1.5 current was evaluated by using a cell line stably expressing human Nav1.5 and HTS automated patch clamp system, similarly in the method using Nav1.1. In other words, test compounds were added in an extracellular fluid which contained 1% DMSO and 500 nmol/L Tetrodotoxin (TTX), and evaluated as a change of the peak value of Nav1.5 current and the area under the curve (AUC). The induction and the measurement of Nav1.5 current, the pharmacologic effect on Nav1.5 current, and a method for pharmacological evaluation were carried out by the same method as in Nav1.1.

human Nav1.1 = molecular target: T2, human Nav1.1 (Homo sapiens, UniProt P35498); experiment: Amplification of Nav1.1-derived voltage-dependent sodium current (Nav1.1 current), cell line stably expressing human Nav1.1, automated patch clamp; type: cell-based
T2 construct: host or cells: HEK293
Outline: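 Automated whole-cell voltage-clamp recordings used HEK293 cells stably expressing human Nav1.1, keeping only cells with >500 pA current, with currents evoked by ramp voltage. Compounds were applied in extracellular fluid with 1% DMSO, and amplification (%) was computed from peak current or AUC after versus before addition.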

[1] = compound 3 μmol/L, CHO-K1 stably expressing human Nav1.5
[2] = compound 3 μmol/L, HEK293 stably expressing human Nav1.1
[3] = 10 μmol/L compound, change of the area under the curve of Nav1.5 current (Test Result 1), read-out: Nav1.5 current amplification rate (%)
[4] = 10 μmol/L compound, change of the area under the curve of Nav1.1 current (Test Result 1), read-out: Nav1.1 current amplification rate (%)
[5] = 10 μmol/L compound, change of the area under the curve of Nav1.5 current (Test Result 1)
[6] = 10 μmol/L compound, change of the area under the curve of Nav1.1 current (Test Result 1)
[7] = compound 3 μmol/L, CHO-K1 stably expressing human Nav1.5, read-out: Nav1.5 current amplification rate (%)
[8] = compound 3 μmol/L, HEK293 stably expressing human Nav1.1, read-out: Nav1.1 current amplification rate (%)

T1 sequence (Q14524 1-2015 isoform Q14524-2): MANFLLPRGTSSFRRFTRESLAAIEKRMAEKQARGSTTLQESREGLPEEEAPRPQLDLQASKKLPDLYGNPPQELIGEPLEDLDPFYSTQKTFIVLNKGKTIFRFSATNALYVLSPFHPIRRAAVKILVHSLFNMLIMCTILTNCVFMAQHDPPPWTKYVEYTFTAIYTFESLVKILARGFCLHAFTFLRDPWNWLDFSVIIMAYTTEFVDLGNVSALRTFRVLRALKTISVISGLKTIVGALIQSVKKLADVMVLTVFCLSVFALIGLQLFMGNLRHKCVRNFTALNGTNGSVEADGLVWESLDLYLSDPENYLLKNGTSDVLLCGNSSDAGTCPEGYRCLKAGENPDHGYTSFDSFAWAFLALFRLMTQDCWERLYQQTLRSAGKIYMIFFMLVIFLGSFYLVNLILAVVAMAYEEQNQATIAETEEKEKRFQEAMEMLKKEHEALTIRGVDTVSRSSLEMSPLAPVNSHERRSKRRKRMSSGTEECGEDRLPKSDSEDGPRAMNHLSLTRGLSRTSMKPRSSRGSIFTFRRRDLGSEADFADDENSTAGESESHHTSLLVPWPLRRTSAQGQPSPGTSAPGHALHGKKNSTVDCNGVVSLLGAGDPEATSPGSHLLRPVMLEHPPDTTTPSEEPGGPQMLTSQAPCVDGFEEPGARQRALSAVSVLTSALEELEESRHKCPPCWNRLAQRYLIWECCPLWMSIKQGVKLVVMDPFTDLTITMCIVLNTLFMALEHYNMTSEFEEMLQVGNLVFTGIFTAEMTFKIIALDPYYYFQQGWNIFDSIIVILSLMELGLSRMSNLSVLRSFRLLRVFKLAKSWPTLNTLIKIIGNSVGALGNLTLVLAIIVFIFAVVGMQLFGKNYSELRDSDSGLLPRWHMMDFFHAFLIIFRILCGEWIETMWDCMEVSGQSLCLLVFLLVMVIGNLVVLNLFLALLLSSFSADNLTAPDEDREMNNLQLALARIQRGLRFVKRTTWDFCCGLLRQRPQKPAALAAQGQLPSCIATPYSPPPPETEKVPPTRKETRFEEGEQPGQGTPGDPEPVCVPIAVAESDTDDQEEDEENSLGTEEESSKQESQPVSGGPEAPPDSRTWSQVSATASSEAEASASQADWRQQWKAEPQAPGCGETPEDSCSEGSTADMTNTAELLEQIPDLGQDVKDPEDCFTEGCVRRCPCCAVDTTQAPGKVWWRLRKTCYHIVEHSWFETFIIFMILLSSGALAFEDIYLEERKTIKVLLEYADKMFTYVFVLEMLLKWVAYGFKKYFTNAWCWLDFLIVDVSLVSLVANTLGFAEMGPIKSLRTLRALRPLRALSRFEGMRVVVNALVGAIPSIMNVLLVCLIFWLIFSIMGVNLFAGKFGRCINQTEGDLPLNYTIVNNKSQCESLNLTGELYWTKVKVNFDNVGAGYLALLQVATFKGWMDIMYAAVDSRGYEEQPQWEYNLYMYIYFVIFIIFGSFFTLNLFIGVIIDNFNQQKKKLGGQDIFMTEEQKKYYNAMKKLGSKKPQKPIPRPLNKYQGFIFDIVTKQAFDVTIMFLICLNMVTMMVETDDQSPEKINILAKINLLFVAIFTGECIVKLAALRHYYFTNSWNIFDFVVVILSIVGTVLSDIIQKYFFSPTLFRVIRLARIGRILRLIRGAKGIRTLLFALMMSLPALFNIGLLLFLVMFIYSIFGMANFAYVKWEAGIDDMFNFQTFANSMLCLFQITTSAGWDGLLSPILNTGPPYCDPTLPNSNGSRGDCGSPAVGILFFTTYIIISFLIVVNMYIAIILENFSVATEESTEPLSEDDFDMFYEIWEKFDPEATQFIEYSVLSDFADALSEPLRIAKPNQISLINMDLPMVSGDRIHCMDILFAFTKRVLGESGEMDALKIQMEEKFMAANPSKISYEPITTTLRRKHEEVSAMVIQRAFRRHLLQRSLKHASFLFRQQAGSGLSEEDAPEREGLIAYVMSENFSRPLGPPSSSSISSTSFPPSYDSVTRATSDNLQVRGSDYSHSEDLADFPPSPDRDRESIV

Row | Compound | activation at 10 µM (human Nav1.5; [3]) [%] | activation at 10 µM (human Nav1.1; [4]) [%] | Nav1.5 current amplification rate (%) (human Nav1.5; [5]) | Nav1.1 current amplification rate (%) (human Nav1.1; [6]) | also measured
1 | CC1CC=C(c2ccc(=O)n(CC(=O)N3CC=C(c4ccccc4)CC3)n2)CC1 (racemic) [Example 257] |  |  |  |  | Nav1.5 current amplification rate (%) (human Nav1.5; [1]): 0%; Nav1.1 current amplification rate (%) (human Nav1.1; [2]): 45%
2 | COCc1nc2cc(NC(=O)Cn3nc(C4=CCC(C)CC4)ccc3=O)ccc2o1 (racemic) [Example 325] |  |  |  |  | Nav1.5 current amplification rate (%) (human Nav1.5; [1]): 10%; Nav1.1 current amplification rate (%) (human Nav1.1; [2]): 233%
3 | Cc1cc2cc(NC(=O)Cn3nc(N4CCC(C)CC4)ccc3=O)ccc2o1 [Example 175] | 1 | 44 |  |  | 
4 | Cc1noc2ccc(NC(=O)Cn3nc(C4=CCC(C)CC4)ccc3=O)cc12 (stereo not shown) [Example 423] |  |  | 4 | 11 | 
5 | CC1CCN(c2ccc(=O)n(CC(=O)Nc3cccc(-c4cnc[nH]4)c3)n2)CC1 [Example 171] |  |  |  |  | activation at 3 µM (human Nav1.5; [7]): 0%; activation at 3 µM (human Nav1.1; [8]): 2%
6 | CC1CCN(c2ccc(=O)n(CC(=O)Nc3ccn4c(Br)cnc4c3)n2)CC1 [Example 173] | 47 | 112 |  |  | 
7 | CC1CCN(c2ccc(=O)n(CC(=O)N3CCc4c(N5CCOCC5)cccc43)n2)CC1 [Example 218] |  |  |  |  | activation at 1 µM (human Nav1.5; compound 1 μmol/L, CHO-K1 stably expressing human Nav1.5, read-out: Nav1.5 current amplification rate (%)): 9%; activation at 1 µM (human Nav1.1; compound 1 μmol/L, HEK293 stably expressing human Nav1.1, read-out: Nav1.1 current amplification rate (%)): 155%
8 | CN1CCN(c2cccc3c2CCN3C(=O)Cn2nc(C3=CCC(C)(C)CC3)ccc2=O)CC1 [Example 433] |  |  | 10 | 192 | 
9 | COc1cc(C2=CCC(C(F)(F)F)CC2)nn(CC(=O)N2CCN(c3cncc(F)c3)CC2)c1=O (racemic) [Example 482] |  |  | 8 | 219 | 
10 | CC1(C)CC=C(c2ccc(=O)n(CC(=O)N3CCN(c4cccnc4)CC3)n2)C1 [Example 508] | -3 | 24 |  |  | 
11 | CC1CC=C(c2ccc(=O)n(CC(=O)N3CCN(c4ccncc4)CC3)n2)CC1 (racemic) [Example 261] |  |  | 1 | 60 | 
12 | CC1CCN(c2ccc(=O)n(CC(=O)Nc3ccc(C#N)nc3)n2)CC1 [Example 51] |  |  | 31 | 196 | 
13 | CC1(C)CCN(c2ccc(=O)n(CC(=O)Nc3ccn4ccnc4c3)n2)CC1 [Example 192] | 2 | 137 |  |  | 
14 | O=C(Cn1nc(N2CCC3(CCC3)C2)ccc1=O)Nc1ccc2c(c1)OCCO2 [Example 191] |  |  |  |  | activation at 3 µM (human Nav1.5; [7]): 2%; activation at 3 µM (human Nav1.1; [8]): 52%
15 | CC1CC=C(c2ccc(=O)n(CC(=O)N3CCN(c4ccccn4)CC3)n2)CC1 (racemic) [Example 394] |  |  | 1 | 98 | 
16 | CC1(C)CCN(c2ccc(=O)n(CC(=O)N3CCc4c(N5CCOCC5)cccc43)n2)CC1 [Example 221] | 15 | 281 |  |  | 
17 | CC1CCN(c2ccc(=O)n(CC(=O)Nc3ccc4ncoc4c3)n2)CC1 [Example 73] |  |  | 1 | 92 | 
18 | COCOc1cccc2c1CCN2C(=O)Cn1nc(C2=CCC(C)(C)CC2)ccc1=O [Example 435] |  |  | 14 | 262 | 
19 | Cc1cc(=O)n(CC(=O)Nc2ccc3ocnc3c2)nc1N1CCC2(CCCC2)C1 [Example 194] | 33 | 252 |  |  | 
20 | O=C(Cn1nc(N2CCCC3(CCCC3)C2)ccc1=O)Nc1ccc2ocnc2c1 [Example 132] | -2 | 108 |  |  | 
21 | CC1(C)CC=C(c2ccc(=O)n(CC(=O)N3CCc4c(N5CCOCC5)cccc43)n2)CC1 [Example 432] |  |  |  |  | Nav1.5 current amplification rate (%) (human Nav1.5; compound 1 μmol/L, CHO-K1 stably expressing human Nav1.5): 16%; Nav1.1 current amplification rate (%) (human Nav1.1; compound 1 μmol/L, HEK293 stably expressing human Nav1.1): 280%
22 | COc1cncc(C2=CCN(C(=O)Cn3nc(C4=CCC(C)CC4)ccc3=O)CC2)c1 (stereo not shown) [Example 403] |  |  | 12 | 270 | 
23 | CC1CCC(c2ccc(=O)n(CC(=O)N3CCc4c(N5CCOCC5)cccc43)n2)CC1 (single isomer, unassigned) [Example 535] |  |  | 10 | 277 | 

Source: patent US20220347175A1, “PYRIDAZINONE DERIVATIVE” (Sumitomo Dainippon Pharma Co., Ltd., priority 2018, published 2022)
